Test results reported in US11286263B2, “Macrocyclic fluorine substituted indole derivatives” (The Broad Institute, Inc., priority 2017, dated 2022).
Structures can show the parent of a compound that is named as a salt. Where two headings read alike, the source gives them in different places.

Columns and labels:
HMC-1-8 = experiment: Antiproliferation assay HMC-1-8 (Assay 7); format: cell-based; conditions: 72 h, HMC-1-8 cells, CellTiter-Glo, single determinations, read-out: IC50 Antiproli HMC-1-8
Method: Assessment of the Anti-Proliferative Effect of Compounds in Different Cell Lines
The impact of compounds on the proliferation of different cell lines was assessed using the CellTiter-Glo® Luminescent Cell Viability reagent from Promega (G7573).
In parallel, cells were plated in a reference (day 0) plate for time zero determination.
Rim wells were excluded. The cells were incubated for 72 h hours in a humidified incubator at 37° C. The day 0 plate was measured by adding 30 μL/well of CTG solution (CellTiter-Glo® Luminescent Cell Viability reagent, Promega G7573) to time zero wells in the reference plate followed by a 10 minutes incubation and luminescence reading at 0.1 ms. using the PHERAstar FS microplate reader (BMG Labtech).
After 72 h incubation, the treated plates were measured in the same way as the day 0 plate mentioned above.

MCL-1 = MCL-1 (Homo sapiens (Human), UniProt Q07820, K194A/K197A/R201A); experiment: Protein-compound interaction assay (SPR assay, Assay 8); format: binding; conditions: immobilized MBP-MCL-1, 25° C., geometric mean
Excerpt: Assay 8 Protein-Compound Interaction Assay (SPR Assay)
The ability of the compounds described in this invention to bind to MCL-1 may be determined using surface plasmon resonance (SPR). This allows for the quantification of binding in terms of the equilibrium dissociation constant (KD [M]), as well as association and dissociation rate constants (kon [1/M 1/s] and koff [1/s], respectively). The measurements may be performed using Biacore® T200 or Biacore® S200 instruments (GE Healthcare).
For SPR measurements, recombinant MCL-1 (amino acids 173-321, N-terminal fused to Maltose Binding Protein (MBP) (SEQ ID 1) purchased from Beryllium (Bedford, Mass., USA)) was immobilized using standard amine coupling (Johnsson B et al, Anal Biochem. 1991 Nov. 1; 198(2):268-77). Briefly, carboxymethylated dextran biosensor chips (Series S Sensor Chip CMS, GE Healthcare) were activated with 1-ethyl-3-(3-dimethylaminopropyl)-carbodiimide hydrochloride (EDC) and N-hydroxysuccinimide (NHS) according to the supplier's instructions. MBP-MCL-1 was diluted in 1×PBS-P+ (GE Healthcare) and injected on the activated chip surface. Subsequently, a solution of 1 M ethanolamine-HCl (GE Healthcare) was injected to block unreacted groups, resulting in approximately 400-2500 response units (RU) of immobilized protein. A reference surface was generated by treatment with NHS-EDC and ethanolamine-HCl. […] For SPR binding-measurements, serial dilutions of compound (eight dilution steps, typically ranging from 0.2 nM up to 1 μM) were injected over immobilized protein. […] Compounds were injected for 60 s followed by a dissociation time of up to 1000 s.
The double-referenced sensorgrams were fit to a simple reversible Langmuir 1:1 reaction mechanism as implemented in the Biacore® T200 and S200 evaluation software (T200 evaluation software version 2.0 and S200 evaluation software version 1.0, GE Healthcare).

MCL1 protein = MCL1 protein (Homo sapiens (Human), UniProt Q07820); experiment: PIxEL: protein-protein interaction in permeabilized cells by ELISA (Assay 5); format: cell-based; conditions: permeabilized RKO cells, biotin-BIM BH3 peptide, median
Method: Assay 5 PI×EL: Protein-Protein Interaction in Permeabilized Cells by ELISA
Most MCL1 protein molecules are localized at the mitochondria outer membrane and sequester pro-apoptotic proteins through binding of their BCL2 homology domain 3 (BH3 domain). MEB buffer (150 mM mannitol, 10 mM HEPES pH 7.5, 50 mM KCl, 20 μM EDTA, 20 μM EGTA, 5 mM potassium succinate, 0.1% protease-free BSA (SIGMA) with low dose digitonin (0.002%) permeabilizes plasma membrane while leaves live mitochondria, where MCL1 maintains its native localization and conformation. Unlike biophysical assays (e.g. TR-FRET) that use truncated recombinant MCL1 protein, this assay uses full length endogenous MCL1 protein at mitochondria outer membrane. It measures the interaction between MCL1 protein and biotinylated BIM BH3 peptide. Compounds can compete with BIM BH3 peptide to bind to MCL1 protein. This serum free assay measures the affinity between MCL1 protein and compound in permeabilized cells, therefore it is not affected by serum binding and cell permeability, and can measure the intrinsic compound affinity.
On day 1, RKO colon cancer cell line cells were plated at 0.8 million cells/ml, 100 μl/well in 96-well flat bottom TC plates (Corning). MCL1 antibody (Santa Cruz sc-12756) were diluted at 200 fold (final concentration 1 μg/ml) in carbonate buffer (Thermo Fisher Scientific, pH 9.6), and 50 μl of diluted antibody was added to each well of high bind ELISA plates (SARSTEDT). Each plate was tapped to make sure liquid covering entire bottom of wells and incubate at 37° C. overnight.
On the second day, MCL1 antibody was washed from ELISA plate. 250 μl Odyssey® Blocking Buffer (PBS) (Li-Cor) was added to each well, incubated at room temperature for at least 1 hour, then washed once with 250 μl 1×PBST. Plates with RKO cells were gently washed once with 100 μl/well PBS, once with 100 μl/well MEB buffer without digitonin, then 100 μl of MEB buffer with 0.002% digitonin was gently added to each well. Compounds were added with HP Tecan compound dispenser in 3-fold dilution series, highest dose 30 μM, 10-dose per compound in quadruplicates. Biotin-BIM peptide (synthesized by 21st Century) was added with HP Tecan compound dispenser at 0.2 μM immediately after the addition of compounds. Plates were rocked for 1 hour at room temperature. Then MEB buffer was aspirated and 50 μl of CHAPS buffer (50 mM Tris-Cl, pH 7.4, 150 mM NaCl, 1% CHAPS, 1 mM EDTA, 1 mM EGTA, complete protease inhibitors (Roche), PhosSTOP (Roche)) was added to each well. Plates were rocked for 1 hour at 4° C., then 45 μl cell lysate from each well were transferred to ELISA plates coated with MCL1 antibody. Plates were incubated overnight in the cold room with rocking.
On the third day, ELISA plates were washed once with 250 μl 1×PBST. Streptavidin-poly-HRP (Thermo Fisher Scientific) was diluted to 20 ng/ml in Odyssey blocking buffer plus 0.05% Triton-100, and 100 μl was added to each well of the ELISA plate. Plates were incubated at room temperature for 1 hour with rocking, then washed with 100 μL 1×PBST for 3 times. Each SuperSignal ELISA Femto Maximum Sensitivity substrate was added to a 50-ml tube and mixed, then 100 μl of mixed substrate was added to each well. Plates were shaken for 1 minute then luminescence was measured by Envision plate reader […]. Signal of each well were normalized by no-compound control and no-cell control. IC50 was calculated using Graphic Pad PRISM software.

MCL-1, sequence (Q07820 whole entry K194A/K197A/R201A, looked up): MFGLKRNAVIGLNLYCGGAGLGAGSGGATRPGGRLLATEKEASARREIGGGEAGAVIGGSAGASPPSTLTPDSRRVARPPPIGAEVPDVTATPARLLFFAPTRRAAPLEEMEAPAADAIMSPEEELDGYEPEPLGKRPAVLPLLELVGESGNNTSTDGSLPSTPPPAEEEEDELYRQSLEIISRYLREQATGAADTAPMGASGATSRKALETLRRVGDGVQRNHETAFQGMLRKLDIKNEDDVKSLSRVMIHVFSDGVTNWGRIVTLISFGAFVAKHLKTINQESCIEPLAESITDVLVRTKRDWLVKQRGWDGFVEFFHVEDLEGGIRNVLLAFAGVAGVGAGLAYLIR
MCL1 protein, sequence (Q07820 whole entry): as the sequence (Q07820 whole entry K194A/K197A/R201A, looked up) above, with A194K, A197K, A201R counted along it

| SMILES | Kd (MCL-1) [nM] | kon (MCL-1) [M⁻¹ s⁻¹] | koff (MCL-1; read-out: koff) [s⁻¹] | IC50 (MCL1 protein) [µM] | other results |
| --- | --- | --- | --- | --- | --- |
| Cc1c2c(nn1C)COCCCCn1c(C(=O)O)c(CCCOc3cccc4ccccc34)c3ccc(F)c-2c31 (racemic) [Example 2, (rac)-4-fluoro-2,3-dimethyl-7-[3-(naphthalen-1-yloxy)propyl]-2,10,11,12,13,15-hexahydro-pyrazolo[4′,3′:9,10][1,6]oxazacycloundecino[8,7,6-hi]indole-8-carboxylic acid] | 43 | 230000 | 0.01 | – | IC50 (HMC-1-8): 10 µM; IC50 (HMC-1-8; listed as 02): 7.58 µM |
| Cc1c2c(nn1C)COCCCCn1c(C(=O)O)c(CCCOc3ccc(F)c4ccccc34)c3ccc(F)c-2c31 (racemic) [Example 15, (rac)-13-fluoro-1-(3-((4-fluoronaphthalen-1-yl)oxy)propyl)-11,12-dimethyl-4,5,6,7,9,11-hexahydropyrazolo[4′,3′:9,10][1]oxa[6]azacycloundecino[8,7,6-hi]indole-2-carboxylic acid] | – | – | – | 4.16 | – |
| CCc1nn(C)c2c1-c1c(F)ccc3c(CCCOc4cccc5ccccc45)c(C(=O)O)n(c13)CCCCOC2 (racemic) [Example 37, (rac)-12-ethyl-13-fluoro-10-methyl-1-(3-(naphthalen-1-yloxy)propyl)-4,5,6,7,9,10-hexahydro-pyrazolo[4′,3′:9,10][1]oxa[6]azacycloundecino[8,7,6-hi]indole-2-carboxylic acid] | – | – | – | 7.35 | – |
| Cc1c2c(nn1C)COCCCCn1c(C(=O)O)c(CCCOc3cccc4ccccc34)c3ccc(F)c-2c31 (single isomer, unassigned; enantiomer 1) [Example 3, 4-fluoro-2,3-dimethyl-7-[3-(naphthalen-1-yloxy)propyl]-2,10,11,12,13,15-hexahydropyrazolo-[4′,3′:9,10][1,6]oxazacycloundecino[8,7,6-hi]indole-8-carboxylic acid-N-ethylethanamine salt (enantiomer 1)] | 4.2 | 4.6e+06 | 0.019 | 1.4 | IC50 (HMC-1-8): 6.11 µM |
| CCc1c2c(nn1C)COCCCCn1c(C(=O)O)c(CCCOc3cccc4ccccc34)c3ccc(F)c-2c31 (single isomer, unassigned; enantiomer 1) [Example 7, 3-ethyl-4-fluoro-2-methyl-7-{3-[(naphthalen-1-yl)oxy]propyl}-2,10,11,12,13,15-hexahydro-pyrazolo[4′,3′:9,10][1,6]oxazacycloundecino[8,7,6-hi]indole-8-carboxylic acid-N-ethylethanamine salt (enantiomer 1)] | 2.3 | 6e+06 | 0.014 | 2.06 | – |
| Cc1c2c(nn1C)COCCCCn1c(C(=O)O)c(CCCOc3cccc4cc(F)ccc34)c3ccc(F)c-2c31 (single isomer, unassigned; enantiomer 1) [Example 13, 4-fluoro-7-{3-[(6-fluoronaphthalen-1-yl)oxy]propyl}-2,3-dimethyl-2,10,11,12,13,15-hexahydro-pyrazolo[4′,3′:9,10][1,6]oxazacycloundecino[8,7,6-hi]indole-8-carboxylic acid-N-ethylethanamine salt (enantiomer 1)] | 0.69 | 1.1e+07 | 0.0077 | 0.872 | – |
| Cc1c2c(nn1C)COCCCCn1c(C(=O)O)c(CCCOc3ccc(F)c4ccccc34)c3ccc(F)c-2c31 (single isomer, unassigned; enantiomer 1) [Example 16, 4-fluoro-7-{3-[(4-fluoronaphthalen-1-yl)oxy]propyl}-2,3-dimethyl-2,10,11,12,13,15-hexahydro-pyrazolo[4′,3′:9,10][1,6]oxazacycloundecino[8,7,6-hi]indole-8-carboxylic acid (enantiomer 1)] | – | – | – | 32.3 | – |
| CCc1c2c(nn1C)COCCCCn1c(C(=O)O)c(CCCOc3ccc(F)c4ccccc34)c3ccc(F)c-2c31 (single isomer, unassigned; enantiomer 1) [Example 27, 3-ethyl-4-fluoro-7-{3-[(4-fluoronaphthalen-1-yl)oxy]propyl}-2-methyl-2,10,11,12,13,15-hexahydropyrazolo[4′,3′:9,10][1,6]oxazacycloundecino[8,7,6-hi]indole-8-carboxylic acid-N-ethylethanamine salt (enantiomer 1)] | – | – | – | 2.43 | – |
| CCc1nn(C)c2c1-c1c(F)ccc3c(CCCOc4ccc(F)c5ccccc45)c(C(=O)O)n(c13)CCCCOC2 (single isomer, unassigned; enantiomer 1) [Example 42, 3-ethyl-4-fluoro-7-{3-[(4-fluoronaphthalen-1-yl)oxy]propyl}-1-methyl-1,10,11,12,13,15-hexahydropyrazolo[4′,3′:9,10][1,6]oxazacycloundecino[8,7,6-hi]indole-8-carboxylic acid (enantiomer 1)] | – | – | – | 8.91 | – |
| CCc1c2c(nn1C)COCCCCn1c(C(=O)O)c(CCCOc3cccc4cc(F)ccc34)c3ccc(F)c-2c31 (single isomer, unassigned; enantiomer 2) [Example 23, 3-ethyl-4-fluoro-7-{3-[(6-fluoronaphthalen-1-yl)oxy]propyl}-2-methyl-2,10,11,12,13,15-hexahydropyrazolo[4′,3′:9,10][1,6]oxazacycloundecino[8,7,6-hi]indole-8-carboxylic acid-N-ethylethanamine salt (enantiomer 2)] | 27 | – | – | 15.1 | koff (MCL-1): 0.0026 s⁻¹; kon [1/M 1/s] (MCL-1): 9.7E4 1/M 1/s |
